Patent US20090104119A1, “Dendrimer Based Compositions And Methods Of Using The Same” (priority 2004, published 2009)

What was measured:
KB cells [1] = assay: Inhibition of cell growth by XTT assay; type: cell-based, human; conditions: for inhibition of cell growth, XTT: 1, 2 or 3 days
Method: (§1) Cell culture and treatment.
Evaluation of dendrimer cytotoxicity.
Because the binding of the conjugate to KB cells reaches maximal uptake within 1 h (Quintana et al, 2002. Pharmaceutical Research 19: 1310-1316.), the effect of the G5-FI-FA-MTX on cell growth was initially tested by pre-incubation of cells with the conjugate for 1 h, followed by incubation in a drug-free medium for 5 d. […] When the cells were pre-incubated with dendrimers for 4 h, there was a modest decrease of about 10% in cell growth as determined by XTT assay. The cytotoxicity measurements were therefore done by incubation with the dendrimer for a minimum of 24 h, a pre-incubation time period shown to induce significant cytotoxicity.
The inhibition of cell growth induced by the conjugates was also tested by XTT assay which is based on the conversion of XTT to formazan by the active mitochondria of live cells (See, e.g., Roehm et al, J Immunol Methods 142, 257 (1991)).
As free FA blocks the uptake of the dendrimers as well as rescues cells from MTX-induced cytotoxicity, the effect of pre-incubation of cells with excess FA on the anti-proliferative effect of G5-FITC-FA-MTX was tested. KB cells were exposed to different concentrations of the conjugate or free MTX for 24 h in the absence or presence of 50 μM FA. The incubation medium was removed, the cells were rinsed and incubated with fresh medium for 5 additional days in the absence of the drugs, and the XTT assay was performed (See, e.g., FIG. 24, □, ▪, represents cells treated with MTX; Δ, ▴, represents cells treated with G5-FITC-FA-MTX).
The anti-proliferative effect of the MTX-conjugates was compared to conjugates that lacked either the FA or the FITC molecule. KB cells were incubated with 30 nM of the conjugates (=150 nM effective MTX concentration) for 24 h and the incubation medium was removed. The cells were rinsed and incubated for an additional 5 d in fresh medium in the absence of the drugs, and the XTT assay was performed.

KB cells [2] = assay: Inhibition of cell growth by total cell protein; conditions: 150 nM FA with 150 nM MTX, 24 h, then 6 d fresh medium; total cell protein
Method: Cell culture and treatment. KB cells were maintained in folate-free medium containing 10% serum (See, e.g., Quintana et al, Pharm. Res. 19, 1310 (2002)) to provide extracellular FA similar to that found in human serum. Cells were plated in 12-well plates for uptake studies, in 24-well plates for cell growth analysis, and in 96-well plates for XTT assay. Cells were rinsed with FA-free medium containing dialyzed serum and incubated at 37° C. with dendrimer-drug conjugates for the indicated time periods and concentrations. KB cells were also maintained in RPMI medium containing 2 μM FA to obtain cells which express low FAR.
Evaluation of dendrimer cytotoxicity. Cell growth was determined by assay of the total protein in lysates of treated cells using a bicinchoninic acid reagent (PIERCE, and by XTT assay, using a kit from Roche.
Time course and dose dependent inhibition of cell growth. Previous studies have shown that MTX-induced cytotoxicity is detectable in vitro only if the medium is completely deprived of FA (See, e.g., Sobrero & Bertino, Int. J. Cell Cloning 4, 51 (1986)). The effect of the trifunctional dendrimers on cell growth was tested in cells incubated in a FA-deficient medium. Cells were treated with 300 nM conjugates (equivalent of 1500 nM MTX) or 1500 nM free MTX for 1-4 days, and cell proliferation was determined by estimation of cellular protein content. Cells were treated for 2 days with different concentrations of the conjugates or free MTX (the conjugate concentration is given as MTX equivalents, with 5 MTX per dendrimer molecule). KB cells which express high and low FAR were incubated with 30 nM of the dendrimers for 1 hr at 37° C., rinsed, and the fluorescence of cells was determined by flow cytometric analysis (See. e.g., FIG. 21, left panel).
KB cells were treated with 150 or 500 nM MTX in the presence or absence of equimolar concentrations of free FA for 24 h. […] The cells were rinsed to remove the drugs and incubated with fresh medium for an additional 6 d, and total cell protein was determined.

[3] = mouse, in vivo
Text: Recipient animal and tumor model. Immunodeficient, 6- to 8-weekold athymic nude female mice [Sim:(NCr) nu/nu fisol] were purchased from Simonsen Laboratories, Inc. (Gilroy, Calif.). Five- to 6-week-old Fox Chase severe combined immunodeficient (SCID; CB-17/lcrCrl-scidBR) female mice were purchased from the Charles River Laboratories (Wilmington, Mass.) and housed in a specific pathogen-free animal facility at the University of Michigan Medical Center in accordance with the regulations of the University's Committee on the Use and Care of Animals as well as with federal guidelines, including the Principles of Laboratory Animal Care. Animals were fed ad libitum with Laboratory Autoclavable Rodent Diet 5010 (PMI Nutrition International, St. Louis, Mo.). Three weeks before tumor cell injection, the food was changed to a folate-deficient diet (TestDiet, Richmond, Ind.). For urine and feces collection, animals were housed in metabolic rodent cages (Nalgene, Rochester, N.Y.).
Tumor cell line. The KB human cell line, which overexpresses the folate receptor (See, e.g., Turek et al, J Cell Sci 106, 423 (1993)), was purchased from the American Type Tissue Collection (Manassas, Va.) and maintained in vitro at 37° C., 5% CO2 in folate-deficient RPMI 1640 supplemented with penicillin (100 units/mL), streptomycin (100 μg/mL), and 10% heat-inactivated fetal bovine serum. Before injection in the mice, the cells were harvested with trypsin-EDTA solution, washed, and resuspended in PBS. The cell suspension (5×10^6 cells in 0.2 mL) was injected s.c. into one flank of each mouse using a 30-gauge needle. In the biodistribution studies, the tumors were allowed to grow for 2 weeks until reaching ˜0.9 cm^3 in volume. The formula chosen to compute tumor volume was for a standard volume of an ellipsoid, where V= 4/3π (½ length×½ width×½ depth). With an assumption that width equals depth and […], the formula used was V=½×length×width^2. Targeted drug delivery using conjugate injections was started on the fourth day after implantation of the KB cells.
Biodistribution and excretion of tritiated dendrimer. […] Both tritiumlabeled conjugates were delivered at equimolar concentrations of the modified dendrimer. At 5 minutes, 2 hours, 1 day, 4 days, and 7 days postinjection, the animals were euthanized and samples of tumor, heart, lung, liver, spleen, pancreas, kidney, and brain were taken. […] The mice were euthanized at 5 minutes, 1 day, and 4 days following injection, and tissues were harvested as above. Blood was collected at each time point via cardiac puncture. Each group included three to five mice. Urine and feces samples were collected at 2, 4, 8 and 12 hours and 1, 2, 3, and 4 days.
Radioactive tissue samples were prepared as described in Nigavekar et al, Pharm Res 21, 476 (2004). The tritium content was measured in a liquid scintillation counter (LS 6500, Beckman Coulter, Fullerton, Calif.). The values of measured radioactivity were adjusted for the counting efficiency of the instrument and used to derive radioactivity (1 μCi=2.22×10^6 dpm) per sample. These values were then normalized by tissue weight and the specific radioactivity of the conjugates was reported as a percentage of the injected dosage (% ID/g). The excreted radioactivity (dendrimer) via urine and feces was reported as a percentage of the injected dosage (% ID).
Biodistribution of tritiated dendrimers. […] The mice were maintained on a folate-deficient diet for the duration of the experiment to minimize the circulating levels of folic acid (See, e.g., Mathias et al., J Nucl Med 29, 1579 (1998)). […] Mice were evaluated at various time points (5 minutes to 7 days) following i.v. administration of the conjugates.

[4] = system: KB cells which express a high cell surface FA receptor (FAR); assay: Cellular uptake/binding of dendrimers in high-FAR KB cells, flow cytometry; type: cell-based, human
Method: as §1
(§2) Flow Cytometry and Confocal Microscopy. The standard fluorescence of the dendrimer solutions was quantified using a Beckman spectrofluorimeter. For flow cytometric analysis of the uptake of the targeted polymer, cells were trypsinized and suspended in PBS containing 0.1% bovine serum albumin (PBSB) and analyzed using a Becton Dickinson FACScan analyzer. The FL1-fluorescence of 10,000 cells was measured and the mean fluorescence of gated viable cells was quantified. Confocal microscopic analysis was performed in cells plated on a glass cover-slip, using a Carl Ziess confocal microscope. Fluorescence and differential interference contrast (DIC) images were collected simultaneously using an argon laser, using the appropriate filters for FITC.
The cellular uptake of the dendrimers was measured in KB cells which express a high cell surface FA receptor (FAR). The FA-conjugated dendrimers bound to the cells in a dose-dependent fashion, with 50% binding at 10-15 nM for both the G5-FITC-FA and G5-FITC-FA-MTX, while the control dendrimer G5-FITC was not detected in the KB cells (See, e.g., FIG. 18A). Identical binding curves were obtained for the G5-FITC-FA and G5-FITC-FA-MTX when the fluorescence obtained was normalized for the quenching observed in the standard solutions of the dendrimers (See e.g., FIG. 18B).
(§3) The effect of free FA on the uptake of the dendrimers was tested in KB cells that express both high and low FAR. The binding of the conjugates to the low FAR-expressing KB cells was 30% of that of the high FAR-expressing cells for both the G5-FITC-FA and G5-FITC-FA-MTX (See, for e.g., FIG. 19, left panel). […] The binding and internalization of the dendrimers to KB cells was assessed by confocal microscopy. KB cells were incubated with 250 nM of the indicated dendrimers for 24 hours and confocal images were taken. Conjugates containing the targeting molecule FA internalized into KB cells within 24 h (See, e.g., FIG. 20).

[5] = system: low FAR-expressing KB cells; assay: Cellular uptake/binding of dendrimers in low-FAR KB cells, flow cytometry; type: cell-based, human
Method: as §1, §2, §3
Time course and dose dependent inhibition of cell growth.

s.c. human KB xenografts = assay: Targeted drug delivery, tumor growth and survival in SCID mice with KB xenografts; type: in vivo, SCID CB-17 mice; conditions: first trial, up to 15 injections; cumulative 5.0 mg/kg methotrexate equivalents or equimolar dendrimer
Method: Recipient animal and tumor model.
Delivery of targeted nanoparticle therapeutic. Twice weekly, SCID mice with s.c. KB xenografts, starting on day 4 after tumor implantation, received via the tail vein an injection of either targeted or nontargeted conjugate containing methotrexate, a conjugate without methotrexate, free methotrexate, or saline as a control. The compounds were delivered in a 0.2 mL volume of saline per 20 g of mouse. The single dose of methotrexate delivered each time equaled 0.33 mg/kg. The higher doses of 1.67 and 3.33 mg/kg free methotrexate were also tested. The conjugates were delivered at equimolar concentration of methotrexate calculated based on the number of methotrexate molecules present in a nanoparticle. The conjugate without methotrexate was delivered at equimolar concentration of dendrimer. In the initial trial, six groups of mice with five mice in each group received up to 15 injections. In the follow-up trial, mice received up to 28 injections dependent on their survival. The body weights of the mice were monitored throughout the experiment as an indication of adverse effects of the drug. Histopathology of multiple organs was done at the termination of each trial and each time mouse had to be euthanized due to toxic effects or tumor burden. Tissues from lung, heart, liver, pancreas, spleen, kidney, and tumor were analyzed. Additionally, cells were isolated from tumors, stained with targeted fluorescein-labeled conjugate, and tested for the presence of folic acid receptors using flow cytometer.
Targeted drug delivery to tumor cells through the folate receptor. The efficacy of different doses of conjugates was tested on SCID CB-17 mice bearing s.c. human KB xenografts and was compared with equivalent and higher doses of free methotrexate. Mice were maintained on the folic acid-deficient diet for 3 weeks before injection of the KB tumor cells to achieve circulating levels of folic acid that approach those in human serum and to prevent down-regulation of folate receptors on tumor xenografts (See, Mathias et al., J Nucl Med 29, 1579 (1998)). Six groups of SCID mice with five mice in each group were injected s.c. on one flank with 5×10^6 KB cells in 0.2 mL PBS suspension. The highest total dose of G5-FI-FA-MTX therapeutic used equals 55.0 mg/kg and is equivalent to a 5.0 mg/kg total cumulative dose of free methotrexate (FIG. 29). The therapeutic dose of the conjugate was compared with three cumulative doses of free methotrexate equivalent to 33.3, 21.7, and 5.0 mg/kg accumulated in 10 to 15 injections based on mouse survival. Saline and the conjugate without methotrexate (G5-FI-FA) were used as controls.

[6] = 50 μM FA, 24 h, then 5 days drug-free, XTT

| Compound | amount in feces [3] | concentration in KB tumor [3] | concentration in liver [3] | time of excretion, primarily through the kidney [3] [h] | inhibition of cell growth, XTT (KB cells [1]) | other results |
| --- | --- | --- | --- | --- | --- | --- |
| Nc1nc2ncc(CNc3ccc(C(=O)N[C@@H](CCC(=O)O)C(=O)O)cc3)nc2c(=O)[nH]1 [FA, Folic Acid, reference compound] | – | – | – | – | – | effect of excess free FA on growth inhibition by conjugate or free MTX (KB cells [1]; [6]): blocked growth inhibition; increase of cell growth above control cells (KB cells [1]; [6]): 20%; reversal of MTX-induced growth-arrest by FA (KB cells [2]): almost completely reversed |
| G5-(Ac)50-(Ac-3H)54 [G5-^3H] | very low amounts | decreased rapidly | decreased rapidly | ≤ 24 | – | – |
| G5-(Ac)50-(Ac-3H)54-(FA)6 [G5-^3H-FA] | very low amounts | increases over the first 4 days | increases over the first 4 days | ≤ 24 | – | cumulative clearance compared with G5-3H [3]: lower |
| G5-(Ac)82-(FITC)5 [G5-FITC] | – | – | – | – | not growth-inhibitory | detection of dendrimer in KB cells ([4]; control dendrimer without FA): not detected |
| G5-(Ac)82-(FITC)5-(FA)5 [G5-FITC-FA] | – | – | – | – | not growth-inhibitory | effect of free FA on uptake, high-FAR expressing cells ([4]; 50 μM FA, dendrimer 30 nM): completely blocked; binding to low FAR-expressing KB cells relative to high FAR-expressing cells [5]: 30%; effect of free FA on uptake, low-FAR expressing cells ([5]; 50 μM FA, dendrimer 30 nM): completely blocked; effect on tumor growth (s.c. human KB xenografts): no therapeutic effect |
